System: yeast genes (expressed mRNA)
Assay: DNA chip measurement of expressed mRNA of yeast genes after culture with a toxic chemical substance
Format: cell-based, Saccharomyces cerevisiae S288C
Description: Yeast (Saccharomyces cerevisiae S288C (a SUC2mal mel gap2 CUP1)) were cultured at 25° C. on YPD medium (yeast extract 1%, polypeptone 2%, glucose 2%). One of toxic chemical substances was added to the cell at logarithmic growth phase, and the cell was further cultured for two hours. Cell was cultured without any chemical substance in the same condition, and was used as a control. Concentrations of the chemical substances were defined to inhibit the growth of the yeast but not lead to death.
After the completion of cultivation, the culture was centrifuged to collect the cells. To the cells, sodium acetate buffer (50 mM sodium acetate, 10 mM EDTA, 1% SDS) was added, and the mixture was shaken at 65° C. for five minutes, followed by returning to room temperature, and obtaining the supernatant, which procedure was repeated two times. To the supernatant, ½ amount of a solution of phenol/chloroform (1:1) was added, and the mixture was centrifuged to give a supernatant, an equal amount of chloroform was added, and the mixture was centrifuged to give a supernatant. To the supernatant, an equal amount of isopropanol containing 0.3 M sodium acetate was added, and the mixture was allowed to stand at room temperature for 30 minutes, after which the mixture was centrifuged to give sediment of the whole RNAs. Seventy % ethanol was added to the sediment, and the mixture was again centrifuged to give sediment, which was then dried and dissolved in water. mRNA was isolated from the whole RNAs as followings. In view of the fact that a poly A chain is attached to the 3′ terminus of mRNA, a polynucleotide having a poly T structure which was immobilized on the surface of latex beads was used to trap the mRNA, and then the mRNA was washed and eluted with spine column (Oligotex-dT30<Super>mRNA Purification Kit, Takara). Reverse transcription of the mRNA was conducted with a reverse transcriptase (Super Script II Reverse Transcriptase; catalogue No. 18064-014, GibcoBRL) using fluorescence-labeled nucleotides to give cDNAs that were introduced with Cy3-dUTP or Cy5-dUTP during the reverse transcription.
The labeled cDNAs were dissolved in TE buffer (10 mM Tris-HCl/1 mM EDTA, pH 8.0), and the solution was dropped on the DNA chip containing the whole genes of yeast (DNA Chip Research Inc. Japan) so that the cDNAs were hybridized on the DNA chip at 65° C. for over 12 hours. The fluoresces intensity of the DNA chip was read with a scanner, and the ratio relative to the fluorescence intensity resulting from the absence of chemical substance was estimated as the following, which is shown in Tables 1 to 9.
In the Tables, “Intensity” indicated in the rightmost column is a value of the level of expressed mRNA of each gene in control cells as divided by the average level of the expressions of the whole genes. A gene of which mRNA level is lower in control, and is higher in cases of addition of chemical substance, is especially useful in the detection of toxic substances.
Here, when a ratio of an amount of mRNA expressed in the presence of the chemical substance to an amount of mRNA expressed in the absence of the chemical substance is two or more, then it is considered significant.

SMILES: S=C([S-])NCCNC(=S)[S-].[Zn+2] [(11), Zinc N,N′-ethylenebis(dithiocarbamate)]
- The level of expressed mRNA in the presence of chemical substance/The level of expressed mRNA in the absence of chemical substance (yeast gene YAL053W, cultured two hours with substance): 2.3
- The level of expressed mRNA in the presence of chemical substance/The level of expressed mRNA in the absence of chemical substance (yeast gene YAR028W, cultured two hours with substance): 0.9
- The level of expressed mRNA in the presence of chemical substance/The level of expressed mRNA in the absence of chemical substance (yeast gene YBL048W, cultured two hours with substance): 2.0
- The level of expressed mRNA in the presence of chemical substance/The level of expressed mRNA in the absence of chemical substance (yeast gene YBL107C, cultured two hours with substance): 2.9
- The level of expressed mRNA in the presence of chemical substance/The level of expressed mRNA in the absence of chemical substance (yeast gene YBR008C (detoxification protein gene)): 9.4
- The level of expressed mRNA in the presence of chemical substance/The level of expressed mRNA in the absence of chemical substance (yeast gene YBR072W (stress protein genes)): 6.3
- The level of expressed mRNA in the presence of chemical substance/The level of expressed mRNA in the absence of chemical substance (yeast gene YBR096W, cultured two hours with the chemical substance): 1.2
- The level of expressed mRNA in the presence of chemical substance/The level of expressed mRNA in the absence of chemical substance (yeast gene YBR269C, cultured two hours with substance): 1.2
- The level of expressed mRNA in the presence of chemical substance/The level of expressed mRNA in the absence of chemical substance (yeast gene YCR102C, cultured two hours with substance): 13.5
- The level of expressed mRNA in the presence of chemical substance/The level of expressed mRNA in the absence of chemical substance (yeast gene YDL023C, cultured two hours with the chemical substance): 3.5
- The level of expressed mRNA in the presence of chemical substance/The level of expressed mRNA in the absence of chemical substance (yeast gene YDL072C, cultured two hours with substance): 1.4
- The level of expressed mRNA in the presence of chemical substance/The level of expressed mRNA in the absence of chemical substance (yeast gene YDL169C, cultured two hours with substance): 1.2
- The level of expressed mRNA in the presence of chemical substance/The level of expressed mRNA in the absence of chemical substance (yeast gene YDL204W, cultured two hours with substance): 3.2
- The level of expressed mRNA in the presence of chemical substance/The level of expressed mRNA in the absence of chemical substance (yeast gene YDL218W, cultured two hours with substance): 5.7
- The level of expressed mRNA in the presence of chemical substance/The level of expressed mRNA in the absence of chemical substance (yeast gene YDL222C, cultured two hours with substance): 2.6
- The level of expressed mRNA in the presence of chemical substance/The level of expressed mRNA in the absence of chemical substance (yeast gene YDR031W, cultured two hours with substance): 1.2
- The level of expressed mRNA in the presence of chemical substance/The level of expressed mRNA in the absence of chemical substance (yeast gene YDR070C, cultured two hours with substance): 4.1
- The level of expressed mRNA in the presence of chemical substance/The level of expressed mRNA in the absence of chemical substance (yeast gene YDR077W (stress protein genes)): 6.8
- The level of expressed mRNA in the presence of chemical substance/The level of expressed mRNA in the absence of chemical substance (yeast gene YDR330W, cultured two hours with substance): 0.9
- The level of expressed mRNA in the presence of chemical substance/The level of expressed mRNA in the absence of chemical substance (yeast gene YDR391C, cultured two hours with substance): 1.9
- The level of expressed mRNA in the presence of chemical substance/The level of expressed mRNA in the absence of chemical substance (yeast gene YDR411C, cultured two hours with substance): 1.3
- The level of expressed mRNA in the presence of chemical substance/The level of expressed mRNA in the absence of chemical substance (yeast gene YDR486C, cultured two hours with substance): 1.4
- The level of expressed mRNA in the presence of chemical substance/The level of expressed mRNA in the absence of chemical substance (yeast gene YDR511W, cultured two hours with substance): 1.2
- The level of expressed mRNA in the presence of chemical substance/The level of expressed mRNA in the absence of chemical substance (yeast gene YDR533C, cultured two hours with substance): 7.7
- The level of expressed mRNA in the presence of chemical substance/The level of expressed mRNA in the absence of chemical substance (yeast gene YDR545W, cultured two hours with substance): 0.7
- The level of expressed mRNA in the presence of chemical substance/The level of expressed mRNA in the absence of chemical substance (yeast gene YEL001C, cultured two hours with substance): 1.2
- The level of expressed mRNA in the presence of chemical substance/The level of expressed mRNA in the absence of chemical substance (yeast gene YEL033W, cultured two hours with the chemical substance): 1.2
- The level of expressed mRNA in the presence of chemical substance/The level of expressed mRNA in the absence of chemical substance (yeast gene YER004W, cultured two hours with substance): 2.2
- The level of expressed mRNA in the presence of chemical substance/The level of expressed mRNA in the absence of chemical substance (yeast gene YER035W, cultured two hours with substance): 1.4
- The level of expressed mRNA in the presence of chemical substance/The level of expressed mRNA in the absence of chemical substance (yeast gene YER038C, cultured two hours with substance): 0.6
- The level of expressed mRNA in the presence of chemical substance/The level of expressed mRNA in the absence of chemical substance (yeast gene YER079W, cultured two hours with substance): 2.1
- The level of expressed mRNA in the presence of chemical substance/The level of expressed mRNA in the absence of chemical substance (yeast gene YER106W, cultured two hours with substance): 1.0
- The level of expressed mRNA in the presence of chemical substance/The level of expressed mRNA in the absence of chemical substance (yeast gene YER158C, cultured two hours with substance): 2.3
- The level of expressed mRNA in the presence of chemical substance/The level of expressed mRNA in the absence of chemical substance (yeast gene YER163C, cultured two hours with substance): 1.6
- The level of expressed mRNA in the presence of chemical substance/The level of expressed mRNA in the absence of chemical substance (yeast gene YER175C, cultured two hours with substance): 1.1
- The level of expressed mRNA in the presence of chemical substance/The level of expressed mRNA in the absence of chemical substance (yeast gene YFL006W, cultured two hours with substance): 1.2
- The level of expressed mRNA in the presence of chemical substance/The level of expressed mRNA in the absence of chemical substance (yeast gene YFL010C, cultured two hours with substance): 1.4
- The level of expressed mRNA in the presence of chemical substance/The level of expressed mRNA in the absence of chemical substance (yeast gene YFL024C, cultured two hours with substance): 0.6
- The level of expressed mRNA in the presence of chemical substance/The level of expressed mRNA in the absence of chemical substance (yeast gene YFL032W, cultured two hours with substance): 1.1
- The level of expressed mRNA in the presence of chemical substance/The level of expressed mRNA in the absence of chemical substance (yeast gene YFR015C, cultured for two hours with substance): 3.9
